Experimental data reported in patent publication US20100330029A1, “Cancer Treatments with Radiation and Immunocytokines” (Merck Patent GmbH, priority 2008, published 2010).

What was measured:
[1] = test system: Lewis lung carcinoma (LLC); test: tumor growth assay, Lewis lung carcinoma model; format: in vivo, mice; conditions: for Complete Response Rate: Sel 5 mg/kg d7, 8, 9, Ch/Rx = cisplatin 4 mg/kg d0 plus 3.6 Gy/d d0-4; for tumor growth / complete regressions: Experiments LLC-1, LLC-2, LLC-4
Protocol: LL/2 (LLC) cells, a murine Lewis lung carcinoma cell line, were maintained in DMEM, supplemented with 10% heat-inactivated fetal bovine serum, L-glutamine, penicillin/streptomycin (Life Technologies, Inc.) at 37° C. and 7% CO2. LLC cells were implanted in female C57BL/6 mice.
For the tumor growth assay, cells growing exponentially in culture were injected as a single cell suspension in 100 μl of PBS intramuscularly into the upper legs of the mice. In experiments using a dual tumor model, cells were also implanted in the flanks of the mice. […] In Experiment LLC-7, tumors were implanted in the flank until established. Mice were treated on days 0 to 9, then, on day 12, tumors were excised using survival surgery. Thereafter, animal survival was monitored. In Experiment LLC-14, tumors were implanted subcutaneously in the flank until established. Mice were treated on days 0 to 6 and day 17, and tumor size was measured twice weekly for the duration of the study.
Tumors were measured with calipers in three dimensions for the duration of the experiment. Tumor volumes were calculated using the equation:
Volume=4/3π(L/2×W/2×H/2) • where L=length, W=width and H=height of the tumor
For local irradiation, mice were anesthetized by intraperitoneal injection of a solution of 2% tribromoethanol/3% xylazine. The amount injected was 0.02 ml/gram of the recipient's weight. Mice were restrained so that only their tumor-bearing leg was exposed to radiation, while the reminder of the mouse was shielded. Tumors were irradiated with ^137Cs gamma radiation at a dose rate of 1 Gy/min using a Gammacell® 40 Exactor (Nordion, Ottawa, ON).
Data from the subcutaneous tumor growth assay are presented in graphic form depicting average and standard deviations (sd) of tumor volumes or weights during and after dosing. Animal weight changes were determined by subtracting the animal weight at each time point from the initial body weight, on day 0, then dividing by the initial body weight and multiplying by 100. Therefore a value of 0 indicates no weight change.
Student's 2-tailed t test or Mann-Whitney Rank Sum test, as appropriate, was performed on the individual tumor volumes or animal weights, to determine significant differences between treatment groups.

[2] = test system: immune markers in LLC tumors; test: immune gene expression profiling of LLC tumors; format: in vivo, mice; conditions: for CD3 gene expression increase / CD8 gene expression increase / CISH gene expression increase / CXCL9 gene expression increase / IFNg gene expression increase: LLC-6; for CD3 gene expression increase: EMD521873+chemoradiation vs EMD521873 or chemoradiation alone; for CD8 gene expression increase / CISH gene expression increase / CXCL9 gene expression increase / IFNg gene expression increase: EMD521873+chemoradiation vs either alone
Protocol: Gene profiling of tumors was analyzed using excised tumor tissues placed in RNAlater® RNA stabilizing reagent upon harvest. Total RNA was prepared with an RNeasy® kit (Qiagen) and cDNA was prepared with the Superscript® III kit for qPCR (Life Technologies, Inc.). qPCR reactions were performed on an ABI7500 instrument in a standardized fashion and relative changes in gene expression were analyzed using the ddCt method (efficiency factor 95%). Housekeeping genes used for comparison included ACTB, B2M and HPRT1.

[3] = Experiment LLC-6, chemoradiation followed by EMD521873
[4] = LLC-3, EMD521873 with cisplatin plus 1.2 Gy/d
[5] = triple combination of chemoradiation plus EMD521873
[6] = LLC-13, radiation in the 2 weeks prior to EMD521873
[7] = LLC-13, radiation in the first week followed by EMD521873

dI-NHS76γ2(h)(FN>AQ)-ala-IL2(D20T) [EMD521873]
Complete Response Rate ([1]; Exp LLC-3): 0/6 | Complete Response Rate ([1]; Exp LLC-4): 1/8 | Complete Response Rate ([1]; Exp LLC-5): 0/6 | growth control of the irradiated lesion (leg tumor) [1, 3]: good growth control | growth control of the non-irradiated flank tumor [1, 3]: did not surpass that of EMD521873 alone | tumor growth ([1]; EMD521873 5 mg/kg d7, 8, 9 with radiation 3.6 Gy/d d0-4): reduced tumor growth compared to any of the single treatments and to the other double treatments | complete regressions ([1]; EMD521873 with radiation): 3/6 | tumor growth ([1]; cisplatin 4 mg/kg d0 added to radiation/EMD521873): further growth control | complete regressions ([1]; cisplatin added to radiation/EMD521873 (triple combination)): 5/6 | complete responses ([1]; Experiments LLC-1, LLC-2, 3.6 Gy days 0-4 followed by EMD521873 5 mg/kg i.v. days 7, 8, 9): 3/6 | complete responses ([1]; Experiments LLC-1, LLC-2, EMD521873 monotherapy 5 mg/kg i.v. days 7, 8, 9): No complete responses | tumor growth control ([1]; LLC-3, EMD521873 5 mg/kg d7, 8, 9 with cisplatin plus 0.4 Gy/d, vs EMD521873 alone or EMD521873 plus cisplatin): did not improve tumor growth control | complete responses [1, 4]: no complete responses | tumor growth control [1, 4]: improved growth control compared to either therapy alone | complete responses ([1]; LLC-3, cisplatin plus 3.6 Gy/d in combination with EMD521873): 5/6 | T/C ([1]; LLC-3, day 19, cisplatin plus 3.6 Gy/d in combination with EMD521873): 0.02 | T/C ([1]; LLC-3, day 19, single-arm groups: cisplatin plus 3.6 Gy/d without EMD521873, or EMD521873 alone): 0.69 | complete responses ([1]; LLC-3, single-arm groups: cisplatin plus 3.6 Gy/d without EMD521873, or EMD521873 alone): 0/6 | animals with complete response ([1]; LLC-8, LLC-9, combination with chemoradiation): 4/6 | T/C ([1]; LLC-8, LLC-9, day 21, combination with chemoradiation (cisplatin 4 mg/kg d0 plus 3.6 Gy/d d0-4)): 0.03 | response rate (CRs) ([1]; LLC-10, 1 mg/kg EMD521873 d7, 8, 9 plus chemoradiation): 2/8 | response rate (CRs) ([1]; LLC-10, 5 mg/kg EMD521873 d7, 8, 9 plus chemoradiation): 3/8 | response rate (CRs) ([1]; LLC-10, 15 mg/kg EMD521873 d7, 8, 9 plus chemoradiation): 3/8 | tumor volume (FIG. 9) ([1]; LLC-10, 1, 5 and 15 mg/kg EMD521873 in combination with chemoradiation vs EMD521873 alone, chemoradiation alone, vehicle): similarly reduced tumor volume | tumor growth control ([1]; LLC-11, EMD521873 5 mg/kg d0, 1, 2 followed by radiation for 1 or 2 weeks, vs EMD521873 or radiation alone): an increase in tumor growth control | tumor regressions and complete responses ([1]; LLC-11, EMD521873 followed by radiation for 1 or 2 weeks): neither tumor regressions nor complete responses were achieved | tumor regressions ([1]; LLC-12, EMD521873 5 mg/kg days 7, 8, 9 after a single week of radiation (3.6 Gy/d; d0, 2, 4)): a majority of tumor regressions | complete responses ([1]; LLC-12, EMD521873 after a single week of radiation): no complete responses | tumor regressions and tumor growth control ([1]; LLC-12, EMD521873 during the 2nd week of a 2 week or 3 week course of radiation, vs EMD521873 or radiation alone): tumor regressions and improved tumor growth control | complete responses ([1]; LLC-13, cisplatin plus radiation for 1 week followed by EMD521873): 4/10 | complete responses ([1]; LLC-13, cisplatin plus radiation for three weeks prior to EMD521873): 0/10 | tumor growth control ([1]; LLC-13, cisplatin plus radiation for two weeks or three weeks prior to EMD521873): neither gave enhancement of tumor growth control compared to chemoradiation alone | complete responses ([1]; LLC-13, cisplatin plus radiation for two weeks prior to EMD521873): 2/10 | tumor growth control ([1]; LLC-13, cisplatin plus radiation in the first week followed by EMD521873): enhancement of tumor growth control compared to either therapy alone | tumor growth (FIG. 6) ([1]; LLC-14, chemoradiation (cisplatin, 3.6 Gy/d d0-4) combined with immunocytokine on d6 and d17, EMD521873 5 mg/kg i.v., NHS-muIL12 10 μg/animal s.c.): enhanced the efficacy of EMD521873 | tumor growth (FIG. 7) ([1]; immunocytokine administered with chemoradiation, compared to no treatment, chemoradiation alone, immunocytokine alone): a decrease in tumor growth | complete regressions (FIG. 8) ([1]; treatment alone): no complete regressions occurred | tumor growth (FIG. 8) ([1]; treatment alone): no decrease in tumor growth was seen | complete regressions (FIG. 8) [1, 5]: 9/9 | tumor volume (FIG. 8) [1, 5]: a decrease in tumor volume | gene expression profiling, panel of immune markers ([2]; Experiments LLC-1, LLC-2, radiation plus EMD521873 compared to either alone): increases in markers for T cell, T cell activation, lymphocyte trafficking, and Th1 response | CD3 gene expression increase ([2]; flank tumor (non-irradiated)): 8 fold | CD8 gene expression increase ([2]; flank tumor): 3.5 fold | CISH gene expression increase ([2]; flank tumor): 3.2 fold | CXCL9 gene expression increase ([2]; flank tumor): 14 fold | IFNg gene expression increase ([2]; flank tumor): 7 fold | CD3 gene expression increase ([2]; leg tumor (irradiated)): > 20 fold | CD8 gene expression increase ([2]; leg tumor): 10 fold | CISH gene expression increase ([2]; leg tumor): 5.8 fold | CXCL9 gene expression increase ([2]; leg tumor): 10.5 fold | IFNg gene expression increase ([2]; leg tumor): 14 fold | 12 immune expression markers (GZMB, PDCD1, NKG7, NKG2D, CD3G, ITGAL, CD122, CD8A, FASL, CTLA4, INOS, CD25) upregulated ([2]; LLC-8, LLC-9, EMD521873 plus chemoradiation relative to the maximal level achieved in the monotherapies): 3 to 6 times | immune gene response profile ([2]; LLC-11, EMD521873 followed by radiation, compared to EMD521873 or either radiation regimen alone): not significantly affected | immune response in the tumor (immune gene profiling) ([2]; LLC-12, EMD521873 during the 2nd week of a 3 week course of radiation vs 1 week or 2 week course): blunted | CD3 fold-induction compared to untreated control [2, 6]: ~14 fold | CD8 fold-induction compared to untreated control [2, 6]: ~6 fold | CD25 fold-induction compared to untreated control [2, 6]: ~22 fold | IFNγ fold-induction compared to untreated control [2, 6]: ~10 fold | granzyme fold-induction compared to untreated control [2, 6]: ~2 fold | perforin fold-induction compared to untreated control [2, 6]: ~5 fold | immune response gene profile in the tumor ([2]; LLC-13, radiation in the 3 weeks prior to EMD521873): nearly complete abrogation of the immune response | CD3 fold-induction compared to untreated control [2, 7]: ~50 fold | CD8 fold-induction compared to untreated control [2, 7]: ~19 fold | CD25 fold-induction compared to untreated control [2, 7]: ~45 fold | IFNγ fold-induction compared to untreated control [2, 7]: ~22 fold | granzyme fold-induction compared to untreated control [2, 7]: ~22 fold | perforin fold-induction compared to untreated control [2, 7]: ~8 fold
